Measurements: ChEMBL document CHEMBL1201862, “PubChem BioAssay data set” (2004)
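Interpolation was linear, between the two tested concentrations surrounding the appropriate level; five concentrations were tested over 48 hours in 96-well plates. GI50: concentration for 50% inhibition of growth.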 Active and inactive are the calls of the source. Cut-off read from the data, not from the text of the source: active = GI50 up to about 1.1 µM and inactive = higher.

What was measured:
Assay in all cases: NCI-60 cell line screen, 48 h
OVCAR-3 = system: OVCAR-3
M19-MEL = system: M19-MEL
NCI/ADR-RES = system: NCI/ADR-RES
XF498 = system: XF498
NCI-H522 = system: NCI-H522
DMS-273 = system: DMS-273
SNB-78 = system: SNB-78
KM-20L2 = system: KM-20L2
DLD-1 = system: DLD-1
MCF7 = system: MCF7
A498 = system: A498
DMS-114 = system: DMS-114
HOP-18 = system: HOP-18
CAKI-1 = system: CAKI-1
MDA-MB-231 = system: MDA-MB-231
PC-3 = system: PC-3
M14 = system: M14
TK-10 = system: TK-10
SR = system: SR
ACHN = system: ACHN

Row | SMILES | GI50 (OVCAR-3) | GI50 (M19-MEL) | GI50 (NCI/ADR-RES) | GI50 (XF498) | GI50 (NCI-H522) | GI50 (DMS-273) | GI50 (SNB-78) | GI50 (KM-20L2) | GI50 (DLD-1) | GI50 (MCF7) | GI50 (A498) | GI50 (DMS-114) | GI50 (HOP-18) | GI50 (CAKI-1) | GI50 (MDA-MB-231) | GI50 (PC-3) | GI50 (M14) | GI50 (TK-10) | GI50 (SR) | GI50 (ACHN)
1 | COc1ccc2cc1Oc1ccc(cc1)C[C@H]1c3cc(c(OC)cc3CCN1C)Oc1c(O)c(OC)cc3c1[C@H](C2)N(C)CC3 [FANGCHINOLINE] | 21.6 µM (inactive) | 22.6 µM (inactive) | 29.4 µM (inactive) | 27.4 µM (inactive) | 27.5 µM (inactive) | 14.7 µM (inactive) | 40.7 µM (inactive) | 1.7 µM (inactive) | 23.4 µM (inactive) | 26.6 µM (inactive) | 18 µM (inactive) | 24.7 µM (inactive) | 32.2 µM (inactive) | 3.54 µM (inactive) |  |  |  |  |  | 
2 | N/C(=N\O)N/N=C\c1cc([N+](=O)[O-])cc([N+](=O)[O-])c1O | 59.3 µM (inactive) | 40.6 µM (inactive) | > 26 µM (inactive) | 40.8 µM (inactive) | 12.5 µM (inactive) | 2.72 µM (inactive) | > 100 µM (inactive) | 24.9 µM (inactive) | > 37.2 µM (inactive) | 19.1 µM (inactive) | > 23.2 µM (inactive) | 6.08 µM (inactive) | > 100 µM (inactive) | 5.66 µM (inactive) |  |  |  |  |  | 
3 | O=c1cnn(C2OC(CO)C(O)C2O)c(=S)[nH]1 (centres undefined) | > 54.2 µM (inactive) | 43.1 µM (inactive) | > 79.3 µM (inactive) | > 100 µM (inactive) | 16.4 µM (inactive) | 2.31 µM (inactive) | > 91.2 µM (inactive) | 28.9 µM (inactive) | 8.47 µM (inactive) | 10.6 µM (inactive) | > 100 µM (inactive) | 29.6 µM (inactive) | > 79.1 µM (inactive) | 2.55 µM (inactive) | > 100 µM (inactive) | 8.73 µM (inactive) | > 100 µM (inactive) | > 100 µM (inactive) | 1.02 µM (active) | 
4 | ClCc1nnc2n1-c1ccc(Cl)cc1SC2 | 2.17 µM (inactive) | 3.23 µM (inactive) | 1.78 µM (inactive) | 5.57 µM (inactive) | 1.63 µM (inactive) | 2.92 µM (inactive) | 5.4 µM (inactive) | 4.67 µM (inactive) |  | 4.2 µM (inactive) | 4.03 µM (inactive) | 2.8 µM (inactive) | 2.92 µM (inactive) |  |  |  |  |  |  | 
5 | CN(C(=O)c1ccc(OCCCC(=O)O)c(Cl)c1Cl)C1CCCC1 | > 100 µM (inactive) | > 100 µM (inactive) | > 100 µM (inactive) | 28.4 µM (inactive) | 42.6 µM (inactive) | > 100 µM (inactive) | > 100 µM (inactive) | > 100 µM (inactive) | > 100 µM (inactive) | > 100 µM (inactive) | > 89.5 µM (inactive) | 69.5 µM (inactive) | > 73.1 µM (inactive) | > 28.6 µM (inactive) |  |  |  |  |  | 
6 | CSc1nc2c(ncn2C2OCC(O)C(O)C2O)c(=O)n1C (centres undefined) | > 100 µM (inactive) | > 100 µM (inactive) | > 100 µM (inactive) | > 100 µM (inactive) | > 100 µM (inactive) | > 100 µM (inactive) | > 100 µM (inactive) | > 100 µM (inactive) | > 100 µM (inactive) | > 100 µM (inactive) | > 100 µM (inactive) | > 100 µM (inactive) | > 100 µM (inactive) |  |  |  |  |  |  | 
7 | Nc1nnc(N)n1NC(=O)C(=O)Nc1ccc([N+](=O)[O-])cc1 |  | > 100 µM (inactive) |  | > 100 µM (inactive) | > 100 µM (inactive) | > 100 µM (inactive) | > 100 µM (inactive) | > 100 µM (inactive) | > 100 µM (inactive) |  | > 100 µM (inactive) | > 100 µM (inactive) | > 100 µM (inactive) | > 100 µM (inactive) |  |  |  | > 100 µM (inactive) | > 100 µM (inactive) | > 100 µM (inactive)
8 | C/C([O-])=C(/c1nc(-c2ccc([N+](=O)[O-])o2)no1)[n+]1cc(C)ccc1C | 19.6 µM (inactive) | 5.19 µM (inactive) | 35 µM (inactive) | 7.48 µM (inactive) | 3.57 µM (inactive) | 11.7 µM (inactive) | 20.7 µM (inactive) | 12.6 µM (inactive) | 11.5 µM (inactive) | 4.02 µM (inactive) | 18.3 µM (inactive) | 16.3 µM (inactive) | 10.2 µM (inactive) | 14.3 µM (inactive) |  |  |  |  |  | 
9 | COc1ccc(C2C(C(=O)O)=C(COC(C)=O)Oc3cc4c(cc32)OCO4)cc1 (centres undefined) | > 100 µM (inactive) | > 100 µM (inactive) |  | 40.7 µM (inactive) |  | > 100 µM (inactive) | > 100 µM (inactive) | > 100 µM (inactive) | > 100 µM (inactive) |  |  | > 100 µM (inactive) | > 100 µM (inactive) | > 100 µM (inactive) |  |  | > 100 µM (inactive) | > 100 µM (inactive) |  | > 100 µM (inactive)
10 | COc1ccc(Sc2ccccc2N)cc1 | 29.1 µM (inactive) | 36.7 µM (inactive) |  | 0.162 µM (active) |  | 30.6 µM (inactive) | 37.8 µM (inactive) | 52.6 µM (inactive) | 43.5 µM (inactive) |  | > 100 µM (inactive) | 29.8 µM (inactive) | > 100 µM (inactive) |  |  |  | 35.8 µM (inactive) | > 100 µM (inactive) | 22.8 µM (inactive) | 56.8 µM (inactive)
11 | Cc1c(N=NN(C)C)cc[n+]([O-])c1C | > 100 µM (inactive) | > 100 µM (inactive) | > 100 µM (inactive) | > 100 µM (inactive) | > 100 µM (inactive) | > 100 µM (inactive) | > 100 µM (inactive) | > 100 µM (inactive) | > 100 µM (inactive) | > 100 µM (inactive) | > 100 µM (inactive) | > 100 µM (inactive) | > 100 µM (inactive) | > 100 µM (inactive) |  |  |  |  |  | 
12 | C=C/C(C)=C/[C@H](C)C(=O)C[C@H](O)CC1CC(=O)NC(=O)C1 | 49.2 µM (inactive) | 80.4 µM (inactive) | 57.4 µM (inactive) | 2.86 µM (inactive) | 21.2 µM (inactive) | 34.9 µM (inactive) | 27.4 µM (inactive) | 19.2 µM (inactive) | 44.2 µM (inactive) | 27.5 µM (inactive) | 30.9 µM (inactive) | 38.3 µM (inactive) | 19 µM (inactive) | 13.6 µM (inactive) |  |  |  |  |  | 
